Calls of active or inactive are those of the source.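 Rule for the calls: active = fitted curve reaches activity change of -35% signal drop at a concentration below twice the top valid tested dose; inactive = the rest, including activity in the opposite direction.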

This is an account of results in PubChem BioAssay AID652047 (Broad Institute, 2013).

Test [1] in a line: growth inhibition of P. falciparum 3D7, dose response, 3D7 strain, red blood cells, SYBR Green, cherry-picked (AID 652047).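 For activity change, negative = inhibition: 0% = untreated neutral control wells and -100% = mefloquine positive control wells.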 The note with it: P. falciparum 3D7 in RBCs, SYBR Green DNA fluorescence.
The test system of test [2] is P. falciparum 3D7 in RBCs, SYBR Green DNA fluorescence. The test is described as above.

As for `FC(F)(F)c1cccc(N2CCc3cn[nH]c32)c1`, in test [1] (at 50 µM (top of the series)), the activity change, negative = inhibition was -2.82% (inactive).

Turning to `Oc1c(Br)cc(-c2ccccc2)cc1Br`, the activity change, negative = inhibition in test [1] (at 50 µM (top of the series)) is -1.67% (inactive).

In the case of `COc1cccc(CC(=O)Nc2ccc3nc(C)sc3c2)c1`, the activity change, negative = inhibition in test [1] (at 50 µM (top of the series)) is -2.47% (inactive).

`CCn1c(CNc2ccc(Cl)cc2)nnc1SCc1ccccc1`: the activity change, negative = inhibition in test [1] (at 50 µM (top of the series)) was -1.95% (inactive).

As for `COc1ccc(N(C)S(=O)(=O)c2ccc(Cl)c(C(=O)NNC(=O)c3ccccc3O)c2)cc1`, in test [1] (at 50 µM (top of the series)), the activity change, negative = inhibition was -2.22% (inactive).

Regarding `CC1CCN(c2ccc3c(c2)S(=O)(=O)c2ccccc2C3=O)CC1`, the activity change, negative = inhibition in test [1] (at 50 µM (top of the series)) was -3.18% (inactive).

In the case of `Nc1nc(-c2ccc(Oc3ccccc3)cc2)cs1`, the activity change, negative = inhibition in test [1] (at 50 µM (top of the series)) was -0.359% (inactive).

On to `CCCCn1c(=O)c(C(=O)NCc2ccncc2)c(O)c2ccccc21`, for which, in test [1] (at 50 µM (top of the series)), the activity change, negative = inhibition was 2.98% (inactive).

Take `CC(C)NC(=O)NC(=O)COC(=O)c1ccc([N+](=O)[O-])cc1Cl`: in test [1] (at 50 µM (top of the series)), the activity change, negative = inhibition is 16.4% (inactive).

Regarding `CCCSC(=S)c1c(C)[nH]n(-c2ccccc2)c1=O`, in test [1] (at 50 µM (top of the series)), the activity change, negative = inhibition was -28.2% (inactive).

With `O/N=C/c1cc(Br)ccc1OCc1ccccc1F`, the activity change, negative = inhibition in test [1] (at 16 µM (top of the series)) was 13.1% (inactive).

For the compound `O=c1c(CO)cc(CO)cc(CO)c1O`, the activity change, negative = inhibition in test [1] (at 50 µM (top of the series)) was -103% (inactive).

As to `COc1cc2c(c(OC)c1OC)-c1ccc(O)c(=O)cc1[C@@H](NC(C)=O)CC2`, the activity change, negative = inhibition in test [1] (at 50 µM (top of the series)) was -10.9% (inactive).

Regarding `Clc1ccc(-c2n[nH]c3c2CCC3)cc1Cl`, in test [1] (at 50 µM (top of the series)), the activity change, negative = inhibition is 19.2% (inactive).

For the compound `O=C(N/N=C/c1cc(Cl)cc([N+](=O)[O-])c1O)c1ccccc1NS(=O)(=O)c1cccs1`, the activity change, negative = inhibition in test [1] (at 50 µM (top of the series)) is 3.85% (inactive).

On to `CC(C)CSc1n[nH]c(=S)s1`, for which the activity change, negative = inhibition in test [1] (at 50 µM (top of the series)) is -1.47% (inactive).

In the case of `CCCCc1ccc(-n2c(Cc3cccs3)n[nH]c2=S)cc1`, the activity change, negative = inhibition in test [1] (at 50 µM (top of the series)) is -28% (inactive).

Consider `O=C(c1ccc(Cl)cc1)N1CCN(c2ccc(F)cc2)CC1`, for which the activity change, negative = inhibition in test [1] (at 50 µM (top of the series)) was -26.4% (inactive).

Consider `CCc1ccc(S(=O)(=O)N(C(=O)c2ccncc2)c2ccc(OC(=O)c3ccncc3)cc2)cc1`, for which the activity change, negative = inhibition in test [1] (at 50 µM (top of the series)) is -20% (inactive).

For the compound `CCOc1ccc(N/N=C(/C#N)C(N)=O)cc1`, the activity change, negative = inhibition in test [1] (at 50 µM (top of the series)) is -29.8% (inactive).

`COC(OC)c1ccc(C#N)c(SCc2ccccc2)n1`: the activity change, negative = inhibition in test [1] (at 50 µM (top of the series)) is -2.94% (inactive).

`CCCCC(CC)c1nnc(NC(=O)c2cccs2)s1` (configuration not stated): the activity change, negative = inhibition in test [1] (at 50 µM (top of the series)) is -12.7% (inactive).

Take `O=C1N(c2ccc(Cl)cc2)C(c2cccnc2)N2CCCN12` (configuration not stated): in test [1] (at 50 µM (top of the series)), the activity change, negative = inhibition was -3.96% (inactive).

In the case of `COc1ccccc1C1CCN(C(=O)c2ccc(Cl)cc2)CC1`, in test [1] (at 50 µM (top of the series)), the activity change, negative = inhibition is -15.2% (inactive).

As to `CCC(Oc1ccc(Br)cc1Cl)C(=O)Nc1nnc(C2CC2)s1` (configuration not stated), the activity change, negative = inhibition in test [1] (at 50 µM (top of the series)) is -18.5% (inactive).

As to `Cc1nc2ccc(C(=O)NCc3ccc4c(c3)OCO4)cc2s1`, in test [1] (at 50 µM (top of the series)), the activity change, negative = inhibition is 1.05% (inactive).

As to `O=C(O)CSc1nc(-c2ccc(Cl)cc2)nc2c1oc1ccccc12`, the activity change, negative = inhibition in test [1] (at 50 µM (top of the series)) was -31.1% (inactive).

On to `CC1(C)CC(=O)C(N=Nc2ccc3ncsc3c2)=C(O)C1`, for which the activity change, negative = inhibition in test [1] (at 50 µM (top of the series)) is -15.1% (inactive).

Take `Cc1ccc(C(=O)C(SC(C)(C)C)n2cncn2)cc1` (configuration not stated): the activity change, negative = inhibition in test [1] (at 50 µM (top of the series)) is -13% (inactive).

On to `O=C(c1ccccc1)c1ccc(Cn2cc(-c3ccccc3)nn2)cc1`, for which the activity change, negative = inhibition in test [1] (at 50 µM (top of the series)) is -9.93% (inactive).

Regarding `CCCn1c(=O)c(C(=O)NCc2ccc(OC)c(OC)c2)c(O)c2ccccc21`, in test [1] (at 50 µM (top of the series)), the activity change, negative = inhibition was -23.6% (inactive).

As for `Cc1cc(Nc2ccccc2)nn1C(=O)c1ccccc1`, the activity change, negative = inhibition in test [1] (at 50 µM (top of the series)) is -5.49% (inactive).

On to `FC(F)(F)c1nc(SCc2ccc(Cl)cc2Cl)n[nH]1`, for which the activity change, negative = inhibition in test [1] (at 50 µM (top of the series)) is 8.98% (inactive).

On to `O=C(c1ccccc1)N1C(=O)C(c2ccccc2)Oc2ccccc21` (configuration not stated), for which the activity change, negative = inhibition in test [1] (at 50 µM (top of the series)) is -36.8% (inactive).

On to `CCn1c(CNc2ccc(Cl)cc2)nnc1SCc1ccc(Cl)cc1`, for which the activity change, negative = inhibition in test [1] (at 50 µM (top of the series)) is -49.2% (inactive).

Regarding `COC(=O)C1=NN(C(=O)c2cccc(Br)c2)C(O)(c2ccc(Cl)cc2)C1` (configuration not stated), the activity change, negative = inhibition in test [1] (at 50 µM (top of the series)) is -78.6% (inactive).

Turning to `CCCOc1ccc2ccccc2c1/C=C1\SC(=O)NC1=O`, the activity change, negative = inhibition in test [1] (at 50 µM (top of the series)) was -22.2% (inactive).

Turning to `CNc1cc(CSC)nc(SCc2ccc(Cl)cc2Cl)n1`, the activity change, negative = inhibition in test [1] (at 50 µM (top of the series)) was 14.7% (inactive).

Take `c1ccc(Cn2cc(-c3cccnc3)cn2)cc1`: the activity change, negative = inhibition in test [1] (at 50 µM (top of the series)) is -24.2% (inactive).

Turning to `CC1=NN(C(N)=S)C(=O)C1N=Nc1cccc(Cl)c1C` (configuration not stated), in test [1] (at 50 µM (top of the series)), the activity change, negative = inhibition was -20.7% (inactive).

For `c1ccc(-c2ccc(OCCCn3cncn3)cc2)cc1`, in test [1] (at 50 µM (top of the series)), the activity change, negative = inhibition was 6.71% (inactive).

Regarding `O=C(O)c1c(NC(=O)N2CCCC2)sc2c1CCCC2`, the activity change, negative = inhibition in test [1] (at 50 µM (top of the series)) was -4.69% (inactive).

Turning to `Cc1cccc(C)c1N1C(=O)C2ON(c3ccccc3)C(c3ccncc3)C2C1=O` (configuration not stated), the activity change, negative = inhibition in test [1] (at 50 µM (top of the series)) was -3.22% (inactive).

In the case of `Cc1cc(NS(=O)(=O)c2ccc(C3CCCCC3)cc2)no1`, in test [1] (at 50 µM (top of the series)), the activity change, negative = inhibition is 27.3% (inactive).

In the case of `CCOC(=O)c1ccc(N2C(=O)CC(N3CCC(O)(c4ccc(Cl)cc4)CC3)C2=O)cc1` (configuration not stated), the activity change, negative = inhibition in test [1] (at 50 µM (top of the series)) is 7.67% (inactive).

`COc1ccc(N(C(=O)c2ccncc2)S(=O)(=O)c2ccc(F)cc2)cc1`: the activity change, negative = inhibition in test [1] (at 50 µM (top of the series)) was 38.9% (inactive).

Consider `COc1ccc(N(C(=O)c2ccncc2)S(=O)(=O)c2ccccc2)cc1`, for which the activity change, negative = inhibition in test [1] (at 50 µM (top of the series)) was -18.5% (inactive).

Consider `COc1cccc(C(C)=C2SC(=S)NC2=O)c1`, for which the activity change, negative = inhibition in test [1] (at 50 µM (top of the series)) was -18.5% (inactive).

Consider `CC12CCC(O)CC1=CCC1C2CCC2(C)C3=NN=CC3CC12` (configuration not stated), for which the activity change, negative = inhibition in test [1] (at 50 µM (top of the series)) was -27.5% (inactive).

For `COC(=O)COC(=O)c1ccccc1NC(=O)c1ccccc1`, in test [1] (at 50 µM (top of the series)), the activity change, negative = inhibition is -21% (inactive).

Consider `O=C1Nc2c(Br)cccc2C1=O`, for which, in test [1] (at 50 µM (top of the series)), the activity change, negative = inhibition was -4.37% (inactive).

On to `CCCn1c2ccccc2c2cc(C(=O)O)ccc21`, for which the activity change, negative = inhibition in test [1] (at 50 µM (top of the series)) is 17.1% (inactive).

As to `O/N=C/c1ccccc1OCc1ccc(Cl)cc1`, in test [1] (at 50 µM (top of the series)), the activity change, negative = inhibition is -27.3% (inactive).

As for `CCCS(=O)(=O)c1c(S(=O)(=O)CCC)c2c(C)cccn2c1C(=O)N/N=C/c1cc(O)cc(O)c1`, in test [2], the AC35 was 8.14 µM.

As for `O=CC1=C(c2ccccc2)Oc2ccccc2O1`, in test [2], the AC35 is 8.24 µM.

As to `O=C(NC(=S)N(CCc1ccccc1)CCc1ccccc1)c1ccco1`, the AC35 in test [2] is 12 µM.

Take `Nc1nc2sc3c(c2c(=O)s1)CCCC3`: the activity change, negative = inhibition in test [1] (at 50 µM (top of the series)) is -14.6% (inactive).

Consider `CC(=O)C1=C(c2cccc([N+](=O)[O-])c2)N(C(C)=O)n2c(C)nnc2S1`, for which the AC35 in test [2] is 0.836 µM.

As for `Cc1ccc(O)c(C2=NNC(c3ccc(Cl)cc3)C2)c1` (configuration not stated), in test [2], the AC35 was 4.31 µM.

In the case of `S=C(NCc1ccco1)Nc1ccc(Oc2ccc(Cl)cc2)cc1`, in test [2], the AC35 is 24 µM.

With `C=C1C(=O)C23CCC4C(C)(C(=O)OC)CCCC4(C)C2CCC1(O)C3` (configuration not stated), the AC35 in test [2] was 1.99 µM.

Turning to `CC1Oc2ccccc2C=C1/C=N/Nc1ccc(C(=O)O)cc1` (configuration not stated), the activity change, negative = inhibition in test [1] (at 16 µM (top of the series)) was 17% (inactive).

Consider `CCCC1CCC(c2ccc(/C(N)=N/O)cc2)CC1` (configuration not stated), for which the activity change, negative = inhibition in test [1] (at 50 µM (top of the series)) was -10.1% (inactive).

Consider `CC1(C)C2CCC1(C)C(OC(=O)c1ccc(O)cc1)C2` (configuration not stated), for which the AC35 in test [2] is 12.2 µM.

Consider `Cc1ccc(NS(=O)(=O)c2ccc(N3CCN(c4ccc(O)cc4)CC3)c([N+](=O)[O-])c2)c(C)c1`, for which the AC35 in test [2] was 17.2 µM.

As to `CCC(C)n1ncn(-c2ccc(N3CCN(c4ccc(OCC5COC(Cn6cncn6)(c6ccc(Cl)cc6Cl)O5)cc4)CC3)cc2)c1=O` (configuration not stated), the AC35 in test [2] was 4.24 µM.

With `Cc1ccoc1C(=O)Nc1cccc(Oc2ccccc2)c1`, the AC35 in test [2] was 10.4 µM.
